Experiments:
[1] = Cytotoxicity against human Raji cells assessed as cell viability at 0.32 nmol by trypan blue assay
[2] = Cytotoxicity against human Raji cells assessed as cell viability at 3.2 nmol by trypan blue assay
[3] = Cytotoxicity against human Raji cells assessed as cell viability at 32 nmol by trypan blue assay
[4] = Cytotoxicity against human Raji cells assessed as cell viability at 16 nmol by trypan blue assay

## CC(C)=CCc1cc(/C=C/C=O)ccc1O
[1]; Raji cells
  viability at 0.32 nmol: > 80%
[2]; Raji cells
  viability at 3.2 nmol: > 80%
[3]; Raji cells
  viability at 32 nmol: 60%
[4]; Raji cells
  viability at 16 nmol: > 80%

## OC/C=C/c1ccc2c(c1)OCO2
[1]; Raji cells
  viability at 0.32 nmol: > 80%
[2]; Raji cells
  viability at 3.2 nmol: > 80%
[3]; Raji cells
  viability at 32 nmol: 70%
[4]; Raji cells
  viability at 16 nmol: > 80%

## COc1cc(=O)n(C)c2c(OC)cccc12
[1]; Raji cells
  viability at 0.32 nmol: > 80%
[2]; Raji cells
  viability at 3.2 nmol: > 80%
[3]; Raji cells
  viability at 32 nmol: 60%
[4]; Raji cells
  viability at 16 nmol: > 80%

## COc1cc2ccc(=O)oc2c2c1OC(C)(C)C=C2
[1]; Raji cells
  viability at 0.32 nmol: > 80%
[2]; Raji cells
  viability at 3.2 nmol: > 80%
[3]; Raji cells
  viability at 32 nmol: 60%
[4]; Raji cells
  viability at 16 nmol: > 80%

## COc1cc(/C=C/C(=O)O)ccc1OCC=C(C)C [BOROPINIC ACID]
[1]; Raji cells
  viability at 0.32 nmol: > 80%
[2]; Raji cells
  viability at 3.2 nmol: > 80%
[3]; Raji cells
  viability at 32 nmol: 70%
[4]; Raji cells
  viability at 16 nmol: > 80%

## O=C(O)/C=C/c1ccc(O)cc1 [COUMARIC ACID]
[1]; Raji cells
  viability at 0.32 nmol: > 80%
[2]; Raji cells
  viability at 3.2 nmol: > 80%
[3]; Raji cells
  viability at 32 nmol: 60%
[4]; Raji cells
  viability at 16 nmol: > 80%

## COc1c2ccccc2nc2occc12 [DICTAMNINE]
[1]; raji
  viability at 0.32 nmol: > 80%
[2]; raji
  viability at 3.2 nmol: > 80%
[3]; raji
  viability at 32 nmol: 60%
[4]; raji
  viability at 16 nmol: > 80%

## COc1ccc2c(OC)c3ccoc3nc2c1 [EVOLITRINE]
[1]; Raji cells
  viability at 0.32 nmol: > 80%
[2]; Raji cells
  viability at 3.2 nmol: > 80%
[3]; Raji cells
  viability at 32 nmol: 60%
[4]; Raji cells
  viability at 16 nmol: > 80%

## COc1ccc2c(OC)c(CC=C(C)C)c(=O)[nH]c2c1OC [PRESKIMMIANINE]
[1]; Raji cells
  viability at 0.32 nmol: > 80%
[2]; Raji cells
  viability at 3.2 nmol: > 80%
[3]; Raji cells
  viability at 32 nmol: 60%
[4]; Raji cells
  viability at 16 nmol: > 80%

## COc1cc(C=O)cc(OC)c1O [SYRINGALDEHYDE]
[1]; Raji cells
  viability at 0.32 nmol: > 80%
[2]; Raji cells
  viability at 3.2 nmol: > 80%
[3]; Raji cells
  viability at 32 nmol: 60%
[4]; Raji cells
  viability at 16 nmol: > 80%

From ChEMBL document CHEMBL1155600, “Constituents of Boronia pinnata” (J Nat Prod, 2000)
